# In patent publication US10438128B2, “Treatment of autoimmune and inflammatory diseases with the arsenic compounds AS2O3 and/or AS2O5 administered locally” (CENTRE NATIONAL DE LA RECHERCHE SCIENTIFIQUE (CNRS), priority 2013, dated 2019):
# What was measured:
# [1] = system: MRL/lpr mice; test: Experiment 1: topical treatment of skin lesions in MRL/lpr mice with As2O3; format: in vivo, mouse; settings: 0.5 mg/ml
# From the text: MRL/lpr mice spontaneously develop disseminated lupus erythematosus, rheumatoid polyarthritis and Sjögren's syndrome characterized by dermatological, vascular, renal, pulmonary, articular and ocular damage due to lymphoid cell infiltrates. As in man, a strong sexual dimorphism is observed in MRL/lpr mice, the female mice presenting an earlier and more severe pathology than the males and dying earlier. The disease begins around the age of 8 weeks and causes the death of the mice, on average, at around 18 weeks of age for the females and 22 weeks for the males, the average lifespan of a normal mouse being 2 years.
# Methods: The solubility of arsenic compounds depends mainly on the pH and oxidation-reduction conditions and the temperature of the excipient. Since the arsenic compound As2O3 is poorly water soluble, it is first dissolved at a high concentration (60 to 70 mg/ml) in dilute alkaline solution (0.5 or 1 M) and gently heated until a clear and colorless solution is obtained. This solution is made free of particles and sterile by filtration on a 0.22 μm filter. The stock As2O3 solution thus obtained is then diluted in phosphate buffer or sterile physiological saline at the concentration varying from 0.5 mg/ml for use in vivo. The stock solution of the arsenic compound As2O3 is preserved from 1 to 3 months in the refrigerator (4° C.), whereas the dilute solution is preserved only 5 days at 4° C. and away from light.
# MRL/lpr mice (10 females and 10 males per group, aged 4 to 5 months) presenting severe lupus-type skin lesions, and for some cutaneous necrotizing vasculitis, were treated, 3 or 5 times per week depending on the experiment (from Monday to Friday), for 8 weeks, by application on the tissue lesions of a compress (or a brush) impregnated with arsenic As2O3 solution at concentrations of 0.5 mg/ml. The control animals were mice, of the same age and sex, treated with the excipient.
# [2] = system: MRL/lpr mice; test: Experiment 2: gradual decrease in number of weekly topical applications of As2O3; format: in vivo, mouse
# Protocol: Methods: Severe skin lesions and cutaneous necrotizing vasculitis present before treatment (time t0 in FIGS. 3, 4 and 5) in 15 4-month-old MRL/lpr mice were treated by applying a compress (or a brush) impregnated with a solution of the arsenic compound As2O3 at the concentration of 0.5 mg/ml. The number of applications per week varied from 2 to 5 depending on the experiment. Similarly, the total duration of the topical treatment varied from 7 to 32 weeks.
# [3] = system: MRL/lpr mice; test: Experiment 6: local treatment with suboptimal As2O3, As2O5 or the combination; format: in vivo, mouse; settings: suboptimal 0.12 mg/ml, 5 applications/week, 8 weeks
# Protocol: (§1) Methods: MRL/lpr mice (males and females) presenting severe lupus-type skin lesions and cutaneous necrotizing vasculitis were treated 5 times per week, for 8 weeks, by administering an aqueous solution containing either the arsenic compound As2O3 or the compound As2O5 or a mixture of both compounds As2O3+As2O5 or phosphate buffer (PBS) as negative control. Weakly effective doses (suboptimal) of As2O3 or As2O5 were voluntarily used. The arsenic compounds were administered in aqueous form using compresses or a brush for local treatment or an intraperitoneal injection for systemic treatment.
# (§2) At the conclusion of the treatment, the blood of each animal was sampled in order to quantify in the serum the levels of autoantibodies (anti-DNA, rheumatoid factor) and cytokines involved in the disease. Skin from the back of each animal was sampled for histological analysis and for analysis of the nature of the inflammatory infiltrate after isolating the cells using enzymatic methods, their counts under the microscope and their analyses by flow cytometry using fluorescent antibodies specific to leukocytes.
# [4] = system: MRL/lpr mice; test: Experiment 6: systemic treatment with suboptimal As2O3, As2O5 or the combination; format: in vivo, mouse; settings: suboptimal 0.12 mg/ml, 5 times/week, 8 weeks
# Protocol: as §1, §2
# [5] = 20° C.; cited from earlier work
# [6] = system: MRL/lpr mice; test: Experiment 3: topical treatment of skin lesions in MRL/lpr mice with As2O5; format: in vivo, mouse; settings: 0.5 mg/ml
# Protocol: Methods: The arsenic compound As2O5 is first dissolved at a high concentration (10 to 15 mg/ml) in distilled water until a clear and colorless solution is obtained. The solution is made sterile and free of particles by filtration on a 0.22 μm filter. The stock As2O5 solution thus obtained is then diluted in phosphate buffer or sterile physiological saline so as to obtain a concentration between 0.5 mg/ml for use in vivo. The stock solution of the arsenic compound As2O5 is preserved for 1 to 3 months in the refrigerator (4° C.), while the dilute solution is preserved for only 5 days at 4° C. and away from light.
# MRL/lpr mice (12 females and 12 males, 4 to 5 months of age) presenting severe lupus-type skin lesions, and for some cutaneous necrotizing vasculitis (time t0 in FIG. 6), were treated 5 times per week (Monday to Friday), for 8 weeks, by applying on the tissue lesions a compress (or a brush) impregnated with a solution of arsenic As2O5 at concentrations of 0.5 mg/ml. The control animals were mice of the same age and sex treated with the excipient.
# [7] = system: MRL/lpr mice; test: Experiment 4: gradual decrease in number of weekly topical applications of As2O5; format: in vivo, mouse
# Protocol: Methods: Severe skin lesions and cutaneous necrotizing vasculitis present at time t0 in 10 MRL/lpr mice 4 to 5 months in age were treated by applying a compress (or a brush) impregnated with a solution of the arsenic compound As2O5 at the concentration of 0.5 mg/ml.
# [8] = system: MRL/lpr mice; test: Experiment 5: systemic (intraperitoneal) treatment of skin lesions in MRL/lpr mice with As2O5; format: in vivo, mouse
# Protocol: Methods: MRL/lpr mice (6 females and 6 males, 4 to 5 months of age) presenting severe lupus-type skin lesions and cutaneous necrotizing vasculitis (time t0 FIGS. 8A and 8B) were treated 5 times per week (Monday to Friday), for 3 or 4 weeks, by intraperitoneal injections of 0.1 ml per 10 g of mouse of a solution of arsenic As2O5 at the concentration of 0.5 mg/ml. The control animals were mice of the same age and sex treated with the excipient.
# [9] = cited from earlier work
# [10] = ratio to As2O3; cited from earlier work
molecule,measurement,setting,value
arsenic trioxide [As2O3],regrowth of hair (skin tissue regeneration),[1],nearly complete regrowth of hair
same,tissue lesions after 8 weeks with 3 weekly applications,"[1]; 3 applications/week, less severe lesions, female mice",significant decrease
same,tissue destruction after 2 weeks of treatment,"[1]; 5 applications/week, 2 weeks",ceased and even regressed
same,inflammatory skin lesions after 8 weeks of treatment,"[1]; 5 applications/week, 8 weeks",nearly completely disappear
same,"undesirable effect (nonspecific immunosuppression, tissue toxicity or premature death)",[1]; 8 weeks,No undesirable effect
same,relapse or rebound of the disease after reduced dosing schedule,"[2]; 5/week for 4 weeks, then 3/week for 6 weeks, female mouse",no relapse or rebound
same,skin damage after 7 weeks of topical treatment,"[2]; 5 applications/week for 2 weeks, then 2/week for 5 weeks",decreased considerably
same,age reached by treated mouse (euthanized),"[2]; female, 3.5 months old at t0, treated 32 weeks discontinuously",1 year
same,cells in lymphocytic/inflammatory infiltrate of back skin (FIG. 9A),[3],still high number of cells
same,inflammatory skin lesions (FIG. 10),[3],presence of severe skin lesions
same,cells in lymphocytic/inflammatory infiltrate of back skin (FIG. 9B),[4],still high number of cells
same,solubility in water,[5],37 mg/mL
"O=[As](=O)O[As](=O)=O [As2O5, arsenic pentoxide]",regrowth of hair (regeneration of lesioned skin tissue),[6],nearly complete regrowth of hair
same,destruction of the skin in first week of treatment,[6]; 5 applications/week,ceased
same,skin lesions after 4 weeks of treatment,[6]; 5 applications/week,almost disappeared
same,time until destruction of skin tissue ceased,[6]; 5 applications/week,less than 2 weeks
same,"undesirable effect (nonspecific immunosuppression, tissue toxicity or premature death)",[6]; 8 weeks,no undesirable effect
same,relapse or rebound of the disease at a single application per week,"[7]; 5 weeks, 1 application/week",no relapse or rebound
same,time to stop development of tissue lesions,"[7]; front-line treatment, 5 applications/week",≤ 2 weeks
same,skin lesions after 2 further weeks at 2 applications per week,"[7]; topical, 0.5 mg/ml",nearly disappeared
same,inflammatory skin and vasculitis lesions after 2 weeks,"[7]; topical, 0.5 mg/ml, 5 applications/week",ceased
same,survival after the beginning of the treatment (majority of animals),"[7]; topical, schedule reduced from 5 to 1 application/week",more than 8 weeks
same,regrowth of hair (regeneration of lesioned skin tissue),[8],nearly complete regrowth of hair
same,"undesirable effect (nonspecific immunosuppression, tissue toxicity or premature death)",[8]; 0.5 mg/ml solution,no undesirable effect
same,destruction of skin after 3 or 4 weeks of treatment,"[8]; 0.1 ml per 10 g of 0.5 mg/ml, 5 times/week",strongly regressed or even nearly disappeared
same,cells in lymphocytic/inflammatory infiltrate of back skin (FIG. 9A),[3],still high number of cells
same,inflammatory skin lesions (FIG. 10),[3],presence of severe skin lesions
same,cells in lymphocytic/inflammatory infiltrate of back skin (FIG. 9B),[4],still high number of cells
same,oral lethal dose for man,[9],5 to 50 mg/kg
same,toxicity relative to As2O3,[10],about 1/60
